Source: patent US20090054455A1, “ARIPIPRAZOLE CO-CRYSTALS” (DR. REDDY'S LABORATORIES LTD., priority 2006, published 2009)

How the values were obtained:
[1] = Polymorphic stability on storage, checked by XRPD; assay type: physicochemical; conditions: stored 3 months in self-sealing polyethylene bag, normal atmospheric conditions, room temperature
Method: The process of the present invention provides stable co-crystals of aripiprazole with fumaric acid. The term “stable crystalline form” refers to stability of the crystalline form under the standard temperature and humidity conditions of testing of pharmaceutical products, wherein the stability is indicated by preservation of the original polymorphic form.
Aripiprazole was prepared according to the process given in Example 2 and was packaged in a self-sealing polyethylene bag. The material was stored for 3 months under normal atmospheric conditions at room temperature and checked for polymorphic stability.

[2] = cited from earlier work

O=C(O)C=CC(=O)O.O=C1CCc2ccc(OCCCCN3CCN(c4cccc(Cl)c4Cl)CC3)cc2N1.O=C1CCc2ccc(OCCCCN3CCN(c4cccc(Cl)c4Cl)CC3)cc2N1 [Example 2]
polymorphic stability (maintenance of the original XRPD pattern) [1]: retain its polymorphic form

O=C1CCc2ccc(OCCCCN3CCN(c4cccc(Cl)c4Cl)CC3)cc2N1 [aripiprazole, 7-[4-[4-(2,3-dichlorophenyl)-1-piperazinyl]butoxy]-3,4-dihydrocarbostyril]
solubility in aqueous media [2]: practically insoluble
